Assay results reported in patent US20240224995A1, “USE OF CLETHODIM FOR INSECT CONTROL” (SYNGENTA CROP PROTECTION AG, priority 2021, published 2024).

Experiments:
Assay type in all cases: in vivo
[1] = tested on: Bemisia tabaci (Silverleaf whitefly); assay: Curative control of Bemisia tabaci second nymph stage (N2) on French beans, spray application
Source text: (§1) Examples 1 to 3 describe biological tests relating to the curative and preventative control of a series of insects with the spray application of dilutions of a formulation containing clethodim as sole active ingredient (ai) (EC240 formulation (SELECT®)) in combination with OCHIMAR adjuvant (Syngenta—alkyl ester of phosphoric acid (752 g/L EC) formulation) to bean or cabbage plants infested with Bemisia tabaci, Frankliniella occidentalis or Myzus persicae (four replicates). The testing protocols and insect control effects are shown below.
Curative control of Bemisia tabaci (Silverleaf whitefly), second nymph stage (N2), treated on French beans (BBCH12):
All treatments (including check) were applied with 250 ml adjuvant (OCHIMA®) per hectare.

[2] = tested on: Frankliniella occidentalis (Western flower thrips); assay: Frankliniella occidentalis mixed aged population infested on French beans three hours after treatment, plant damage evaluation; details: 60 g ai/ha; plant damage by feeding on leaf tissue
Source text: as §1
Frankliniella occidentalis (Western flower thrips), mixed aged population, infested on French beans (BBCH12) three hours after treatment.
All treatments (including check) were applied with 250 mL adjuvant (OCHIMA®) per hectare. The above table relates to an evaluation of plant damage caused by Western flower thrips feeding on leaf tissue.

[3] = tested on: Myzus persicae (Green peach aphids); assay: Curative control of Myzus persicae mixed aged population on Chinese cabbage, spray application; details: 120 and 60 g ai/ha
Source text: as §1
Curative control of Myzus persicae (Green peach aphids), mixed aged population, on Chinese cabbage (BBCH19).
All adjuvant containing treatments were applied with 250 mL adjuvant (OCHIMA®) per hectare.

For `CCSC(C)CC1CC(=O)C(/C(CC)=N\OC/C=C/Cl)=C(O)C1` (racemic) [clethodim, (5RS)-2-[(1EZ)-N-{[(2E)-3-chloroallyl]oxy}propanimidoyl]-5-[(2RS)-2-(ethylthio)propyl]-3-hydroxycyclohex-2-en-1-one], the “efficacy against whiteflies compared to thrips or aphids” value ([1]; data in Tables 1 to 3) was “surprising selective efficacy”, the “control effect against whiteflies against the check treatment” value ([1]; two ai application rates (120 and 60 g ai/ha)) was “significant control effect” and the “control effect against Western flower thrips against the check treatment” value [2] was “at best minor”. The “control effect against aphids against the check treatment” value [3] was “at best minor”.
